The values that follow are results of earlier work, collected in paper PMC6971042, “Exploring ion-ion preferences through structure-property correlations: amino acid-derived, bis(guanidinium) disiloxane salts” (Scientific Reports, 2020).

Details of the data set: method as in PMID 26714187. As to conditions: qualitative.

Structures are written as SMILES.

Take `C[Si](C)(CCCNC(=N)N)O[Si](C)(C)CCCNC(=N)N` [GUA, 1,3-bis(3-guanidinopropyl)-tetramethyldisiloxane dichloride]: the water solubility result was “fully water-miscible”.

Take `C[Si](C)(CCCNC(=N)N)O[Si](C)(C)CCCNC(=N)N.O=[N+]([O-])O` [1,3-bis(3-guanidinopropyl)-tetramethyldisiloxane nitrate]: the water solubility result was “abnormally low”.
